Test results reported in ChEMBL document CHEMBL4665653, “VU6005806/AZN-00016130, an advanced M positive allosteric modulator (PAM) profiled as a potential preclinical development candidate” (Bioorg Med Chem Lett, 2019).

Tests used:
[1] = target: T1, Muscarinic acetylcholine receptor M3 (Homo sapiens, UniProt P20309); assay: Positive allosteric modulation of human M3 receptor
[2] = target: Muscarinic acetylcholine receptor M5 (Homo sapiens, UniProt P08912); assay: Positive allosteric modulation of human M5 receptor
[3] = test system: P-gp; assay: Substrate activity at human P-gp expressed in MDCK-MDR1 cells assessed as efflux ratio; type: ADME, cell-based
[4] = Distribution coefficient, log D of the compound pH 7.5; type: physicochemical; conditions: octanol/water
[5] = target: Muscarinic acetylcholine receptor M4 (Rattus norvegicus) (UniProt P08485); assay: Positive allosteric modulation of rat M4 receptor relative to acetylcholine; conditions: filed as positive allosteric modulator
[6] = target: Muscarinic acetylcholine receptor M3 (Rattus norvegicus, UniProt P08483); assay: Positive allosteric modulation of rat M3 receptor
[7] = target: Muscarinic acetylcholine receptor M5 (Rattus norvegicus, UniProt P08911); assay: Positive allosteric modulation of rat M5 receptor
[8] = Plasma clearance in rat; type: ADME; conditions: read-out: CL(app)
[9] = Half life in rat; type: ADME; conditions: in vivo
[10] = Oral bioavailability in rat at 3 mg/kg administered as suspension; type: ADME, organism-based; conditions: in vivo
[11] = Volume of distribution at steady state in cynomolgus monkey; type: ADME, Macaca fascicularis; conditions: in vivo, read-out: Vdss
[12] = test system: Rattus norvegicus; assay: Reversal of amphetamine-induced hyperlocomotion in po dosed rat assessed as minimum effective dose; type: functional; conditions: read-out: MED
[13] = target: D(3) dopamine receptor (Homo sapiens) (UniProt P35462); assay: Displacement of [3H]spiperone from full length human dopamine D3 receptor expressed in CHO cells assessed as residual binding level for radioligand at 10 uM incubated for 60 mins by radiometric scintillation analysis relative to control; type: cell-based
[14] = target: D(2) dopamine receptor (Homo sapiens) (UniProt P14416); assay: Displacement of [3H]Spiperone from full length human dopamine D2S receptor expressed in CHO cells assessed as residual binding level for radioligand at 10 uM after 120 mins by radiometric scintillation analysis relative to control; type: cell-based
[15] = target: Voltage-dependent N-type calcium channel subunit alpha-1B (Rattus norvegicus) (UniProt Q02294); assay: Displacement of [125I]-w-conotoxin GIVA from N-type calcium channel Cav2.2 in Wistar rat brain membrane assessed as residual binding level for radioligand at 10 uM incubated for 30 mins by radiometric scintillation analysis relative to control; type: cell membranes
[16] = target: B2 bradykinin receptor (Homo sapiens) (UniProt P30411); assay: Displacement of [3H]bradykinin from recombinant full length human B2 receptor expressed in Chem-1 cells assessed as residual binding level for radioligand at 10 uM after 60 mins by radiometric scintillation analysis relative to control; type: cell-based
[17] = target: Alpha-2A adrenergic receptor (Homo sapiens) (UniProt P08913); assay: Displacement of [3H][…] from recombinant full length human adrenergic alpha 2A receptor expressed in CHO-K1 cells assessed as residual binding level for radioligand at 10 uM incubated for 60 mins by radiometric scintillation analysis relative to control; type: cell-based
[18] = target: Sodium-dependent dopamine transporter (Homo sapiens) (UniProt Q01959); assay: Displacement of [125I]RTI-55 from full length recombinant human dopamine transporter expressed in CHO-S cells assessed as residual binding level for radioligand at 10 uM after 180 mins by radiometric scintillation analysis relative to control; type: cell-based
[19] = target: Sodium-dependent noradrenaline transporter (Homo sapiens) (UniProt P23975); assay: Displacement of [125I]RTI-55 from full length recombinant human NET expressed in MDCK cells assessed as residual binding level for radioligand at 10 uM after 180 mins by radiometric scintillation analysis relative to control; type: cell-based
[20] = target: 5-hydroxytryptamine receptor 1A (Homo sapiens) (UniProt P08908); assay: Displacement of [3H]-8-OH-DPAT from full length recombinant human 5HT1A receptor expressed in CHO-K1 cells assessed as residual binding level for radioligand at 10 uM incubated for 60 mins by radiometric scintillation analysis relative to control; type: cell-based
[21] = target: Adenosine receptor A1 (Homo sapiens) (UniProt P30542); assay: Displacement of [3H]DPCPX from recombinant full length human adenosine A1 receptor expressed in CHO-K1 cells assessed as residual binding level for radioligand at 10 uM incubated for 90 mins radiometric scintillation analysis relative to control; type: cell-based
[22] = target: Glutamate NMDA receptor (Rattus norvegicus) (UniProt P35439+Q00959+Q00960+Q00961+Q62645+Q8VHN2+Q9R1M7); assay: Displacement of [3H]-CGP39653 from NMDA glutamate receptor in Wistar rat brain assessed as residual binding level for radioligand at 10 uM incubated for 20 mins by scintillation counting analysis relative to control; type: tissue-based
[23] = target: Histamine H1 receptor (Homo sapiens) (UniProt P35367); assay: Displacement of [3H]pyrilamine from full length recombinant human histamine H1 receptor expressed in CHO-K1 cells assessed as residual binding level for radioligand at 10 uM after 180 mins by scintillation counting analysis relative to control; type: cell-based
[24] = target: Interleukin-1 receptor type 1 (Homo sapiens) (UniProt P14778); assay: Displacement of [125I]-Interleukin 1beta from human interleukin IL-1 R1 receptor assessed as residual binding level for radioligand at 10 uM incubated for 1200 mins by scintillation counting analysis relative to control
[25] = target: Melatonin receptor type 1A (Homo sapiens) (UniProt P48039); assay: Displacement of 2-[1251]-iodomelatonin from human MT1 receptor expressed in CHO-K1 cells assessed as residual binding level for radioligand at 10 uM incubated for180 mins by scintillation counting analysis relative to control; type: cell-based; conditions: time 180.0 min
[26] = target: T1, Muscarinic acetylcholine receptor M3; assay: Displacement of [3H]N-Methylscopolamine from full length human recombinant muscarinic M3 receptor expressed in CHOK1 cells assessed as residual binding level for radioligand at 10 uM measured after 120 mins by radiometric scintillation analysis relative to control; type: cell-based; conditions: CHO-K1
[27] = target: Substance-P receptor (Homo sapiens) (UniProt P25103); assay: Displacement of [3H]substance P from recombinant full length human NK1R expressed in CHO cells assessed as residual binding level for radioligand at 10 uM after 90 mins by radiometric scintillation analysis relative to control; type: cell-based
[28] = target: Neuropeptide Y receptor type 1 (Homo sapiens) (UniProt P25929); assay: Displacement of [125I]peptide YY from human Y1 receptor in SK-N-MC cell membrane assessed as residual binding level for radioligand at 10 uM after 120 mins by scintillation counting analysis relative to control
[29] = target: Neuropeptide Y receptor type 2 (Homo sapiens) (UniProt P49146); assay: Displacement of [125I]peptide YY from human Y2 receptor in KAN-TS cell membrane assessed as residual binding level for radioligand at 10 uM after 120 mins by scintillation counting analysis relative to control
[30] = target: 5-hydroxytryptamine receptor 2B (Homo sapiens) (UniProt P41595); assay: Displacement of [3H]-LSD from recombinant full length human 5HT2B receptor expressed in CHO-K1 cells assessed as residual binding level for radioligand at 10 uM incubated for 60 mins by; type: cell-based
[31] = target: Sigma non-opioid intracellular receptor 1 (Homo sapiens) (UniProt Q99720); assay: Displacement of [3H]-(+)-pentazocine from human sigma-1 receptor in human T lymphocyte Jurkat cell membrane assessed as residual binding level for radioligand at 10 uM incubated for 120 mins by liquid scintillation counting method relative to control; type: tissue-based
Sigma non-opioid intracellular receptor 1 (Homo sapiens), sequence (Q99720 whole entry): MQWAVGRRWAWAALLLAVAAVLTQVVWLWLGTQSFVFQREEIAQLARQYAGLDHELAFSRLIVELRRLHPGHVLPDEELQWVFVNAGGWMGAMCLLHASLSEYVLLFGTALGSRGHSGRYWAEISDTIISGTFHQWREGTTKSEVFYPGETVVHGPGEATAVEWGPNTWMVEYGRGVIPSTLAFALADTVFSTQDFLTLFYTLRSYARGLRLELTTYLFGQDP

D(3) dopamine receptor (Homo sapiens), sequence (P35462 whole entry): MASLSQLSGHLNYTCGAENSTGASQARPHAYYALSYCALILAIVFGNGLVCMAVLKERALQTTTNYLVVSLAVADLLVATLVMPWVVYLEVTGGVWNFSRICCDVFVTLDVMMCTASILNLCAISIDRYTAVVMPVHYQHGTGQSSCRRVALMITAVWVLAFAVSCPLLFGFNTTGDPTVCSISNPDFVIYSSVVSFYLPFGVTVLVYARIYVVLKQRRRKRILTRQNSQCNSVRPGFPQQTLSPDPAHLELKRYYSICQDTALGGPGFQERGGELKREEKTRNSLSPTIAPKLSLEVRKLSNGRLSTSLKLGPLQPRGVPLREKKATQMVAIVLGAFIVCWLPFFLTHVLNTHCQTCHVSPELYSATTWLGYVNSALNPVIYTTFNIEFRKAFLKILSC
Substance-P receptor (Homo sapiens), sequence (P25103 whole entry): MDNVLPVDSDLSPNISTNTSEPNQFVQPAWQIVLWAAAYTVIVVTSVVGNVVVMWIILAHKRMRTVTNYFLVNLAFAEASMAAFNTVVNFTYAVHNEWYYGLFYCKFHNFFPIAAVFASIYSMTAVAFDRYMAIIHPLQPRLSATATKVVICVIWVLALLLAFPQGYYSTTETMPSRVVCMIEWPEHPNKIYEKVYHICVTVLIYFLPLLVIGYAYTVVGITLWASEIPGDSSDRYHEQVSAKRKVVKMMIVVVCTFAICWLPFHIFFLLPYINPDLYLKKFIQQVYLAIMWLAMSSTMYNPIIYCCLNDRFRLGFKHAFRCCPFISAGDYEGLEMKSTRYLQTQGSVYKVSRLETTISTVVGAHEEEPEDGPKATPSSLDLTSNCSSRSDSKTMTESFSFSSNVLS
Sodium-dependent dopamine transporter (Homo sapiens), sequence (Q01959 whole entry): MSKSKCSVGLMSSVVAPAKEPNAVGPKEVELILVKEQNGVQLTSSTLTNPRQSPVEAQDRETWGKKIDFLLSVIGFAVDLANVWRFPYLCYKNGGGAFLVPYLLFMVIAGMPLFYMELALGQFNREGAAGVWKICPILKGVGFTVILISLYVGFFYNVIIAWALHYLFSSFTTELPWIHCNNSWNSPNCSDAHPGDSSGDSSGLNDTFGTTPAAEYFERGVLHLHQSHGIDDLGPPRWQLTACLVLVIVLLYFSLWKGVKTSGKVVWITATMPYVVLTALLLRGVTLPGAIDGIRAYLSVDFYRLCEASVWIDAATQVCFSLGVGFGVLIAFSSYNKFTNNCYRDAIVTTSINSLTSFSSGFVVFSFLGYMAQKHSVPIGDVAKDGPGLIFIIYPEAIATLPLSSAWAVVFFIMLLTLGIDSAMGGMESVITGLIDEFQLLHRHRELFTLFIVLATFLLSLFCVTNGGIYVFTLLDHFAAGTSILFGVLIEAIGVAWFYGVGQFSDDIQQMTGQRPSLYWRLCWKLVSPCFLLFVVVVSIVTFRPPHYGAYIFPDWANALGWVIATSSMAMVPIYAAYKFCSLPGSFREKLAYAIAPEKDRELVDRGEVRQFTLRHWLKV
Neuropeptide Y receptor type 2 (Homo sapiens), sequence (P49146 whole entry): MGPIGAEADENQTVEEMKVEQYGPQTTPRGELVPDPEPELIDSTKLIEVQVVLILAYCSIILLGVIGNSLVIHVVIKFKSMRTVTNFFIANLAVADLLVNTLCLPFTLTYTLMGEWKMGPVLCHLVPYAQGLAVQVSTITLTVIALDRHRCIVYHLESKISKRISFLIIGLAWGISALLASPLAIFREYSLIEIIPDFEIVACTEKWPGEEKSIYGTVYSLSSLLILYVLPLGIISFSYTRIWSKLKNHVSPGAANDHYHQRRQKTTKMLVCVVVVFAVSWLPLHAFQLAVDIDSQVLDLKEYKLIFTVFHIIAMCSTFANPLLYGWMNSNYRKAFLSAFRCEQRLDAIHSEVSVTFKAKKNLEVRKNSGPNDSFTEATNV
Muscarinic acetylcholine receptor M4 (Rattus norvegicus), sequence (P08485 whole entry): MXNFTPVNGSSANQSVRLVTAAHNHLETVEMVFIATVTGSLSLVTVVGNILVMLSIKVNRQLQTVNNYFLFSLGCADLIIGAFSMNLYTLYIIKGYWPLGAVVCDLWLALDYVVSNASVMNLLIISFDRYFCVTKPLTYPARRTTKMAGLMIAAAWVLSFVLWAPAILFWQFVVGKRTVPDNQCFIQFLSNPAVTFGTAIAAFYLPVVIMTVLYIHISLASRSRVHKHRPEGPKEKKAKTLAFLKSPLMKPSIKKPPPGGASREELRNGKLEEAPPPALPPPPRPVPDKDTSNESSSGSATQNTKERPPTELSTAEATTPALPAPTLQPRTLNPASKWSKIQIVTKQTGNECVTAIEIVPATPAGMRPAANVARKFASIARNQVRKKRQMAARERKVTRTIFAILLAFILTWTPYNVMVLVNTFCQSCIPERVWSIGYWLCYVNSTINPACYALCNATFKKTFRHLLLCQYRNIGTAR
Muscarinic acetylcholine receptor M5 (Rattus norvegicus, UniProt P08911), sequence (P08911 whole entry): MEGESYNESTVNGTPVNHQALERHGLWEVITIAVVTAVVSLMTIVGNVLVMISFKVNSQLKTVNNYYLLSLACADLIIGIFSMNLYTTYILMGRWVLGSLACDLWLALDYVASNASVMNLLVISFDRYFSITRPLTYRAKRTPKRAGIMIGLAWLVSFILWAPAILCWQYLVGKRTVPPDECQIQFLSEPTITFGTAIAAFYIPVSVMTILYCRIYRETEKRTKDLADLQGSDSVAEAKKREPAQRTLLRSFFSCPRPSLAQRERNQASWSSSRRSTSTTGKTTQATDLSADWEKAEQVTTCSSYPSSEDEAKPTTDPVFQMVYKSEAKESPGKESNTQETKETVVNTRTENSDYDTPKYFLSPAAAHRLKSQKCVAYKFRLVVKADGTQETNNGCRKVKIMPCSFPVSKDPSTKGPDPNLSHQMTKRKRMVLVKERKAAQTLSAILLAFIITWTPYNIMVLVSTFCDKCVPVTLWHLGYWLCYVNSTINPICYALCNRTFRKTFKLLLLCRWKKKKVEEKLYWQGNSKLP
Sodium-dependent noradrenaline transporter (Homo sapiens), sequence (P23975 whole entry): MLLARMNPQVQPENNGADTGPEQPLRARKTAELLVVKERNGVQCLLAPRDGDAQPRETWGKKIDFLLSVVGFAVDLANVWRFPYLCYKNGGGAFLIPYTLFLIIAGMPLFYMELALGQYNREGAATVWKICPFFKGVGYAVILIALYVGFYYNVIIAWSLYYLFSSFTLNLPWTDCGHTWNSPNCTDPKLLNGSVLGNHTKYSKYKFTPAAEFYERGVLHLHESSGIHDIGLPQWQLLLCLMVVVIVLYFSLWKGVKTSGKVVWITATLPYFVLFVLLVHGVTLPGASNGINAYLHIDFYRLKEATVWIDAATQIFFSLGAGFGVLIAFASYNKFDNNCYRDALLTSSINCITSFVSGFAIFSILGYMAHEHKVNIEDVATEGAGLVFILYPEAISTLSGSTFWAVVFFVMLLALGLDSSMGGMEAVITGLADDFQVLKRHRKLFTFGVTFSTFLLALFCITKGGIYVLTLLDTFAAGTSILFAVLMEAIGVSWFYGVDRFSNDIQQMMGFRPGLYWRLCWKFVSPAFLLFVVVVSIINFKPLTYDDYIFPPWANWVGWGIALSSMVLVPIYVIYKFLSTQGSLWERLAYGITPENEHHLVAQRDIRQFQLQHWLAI
Adenosine receptor A1 (Homo sapiens), sequence (P30542 whole entry): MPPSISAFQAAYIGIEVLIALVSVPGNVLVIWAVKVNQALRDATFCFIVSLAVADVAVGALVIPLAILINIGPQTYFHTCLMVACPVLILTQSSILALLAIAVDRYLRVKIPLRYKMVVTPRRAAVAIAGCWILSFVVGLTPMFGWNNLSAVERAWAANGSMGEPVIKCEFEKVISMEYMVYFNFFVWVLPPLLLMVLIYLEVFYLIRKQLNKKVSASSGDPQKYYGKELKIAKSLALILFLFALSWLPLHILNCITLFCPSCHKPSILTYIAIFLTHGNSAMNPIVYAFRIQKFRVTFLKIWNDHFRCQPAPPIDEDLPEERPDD
5-hydroxytryptamine receptor 1A (Homo sapiens), sequence (P08908 whole entry): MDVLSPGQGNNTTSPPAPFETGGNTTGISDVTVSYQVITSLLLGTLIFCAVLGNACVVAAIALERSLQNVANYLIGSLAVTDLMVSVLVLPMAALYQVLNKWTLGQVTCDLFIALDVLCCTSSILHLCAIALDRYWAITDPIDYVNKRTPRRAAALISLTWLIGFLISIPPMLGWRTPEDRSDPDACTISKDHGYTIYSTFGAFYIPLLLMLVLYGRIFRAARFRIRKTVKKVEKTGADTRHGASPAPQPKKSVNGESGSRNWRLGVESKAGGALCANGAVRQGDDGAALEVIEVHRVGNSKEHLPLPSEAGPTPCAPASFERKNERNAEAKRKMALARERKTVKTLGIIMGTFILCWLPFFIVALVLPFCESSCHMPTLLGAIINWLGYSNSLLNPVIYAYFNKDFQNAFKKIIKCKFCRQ
B2 bradykinin receptor (Homo sapiens), sequence (P30411 whole entry): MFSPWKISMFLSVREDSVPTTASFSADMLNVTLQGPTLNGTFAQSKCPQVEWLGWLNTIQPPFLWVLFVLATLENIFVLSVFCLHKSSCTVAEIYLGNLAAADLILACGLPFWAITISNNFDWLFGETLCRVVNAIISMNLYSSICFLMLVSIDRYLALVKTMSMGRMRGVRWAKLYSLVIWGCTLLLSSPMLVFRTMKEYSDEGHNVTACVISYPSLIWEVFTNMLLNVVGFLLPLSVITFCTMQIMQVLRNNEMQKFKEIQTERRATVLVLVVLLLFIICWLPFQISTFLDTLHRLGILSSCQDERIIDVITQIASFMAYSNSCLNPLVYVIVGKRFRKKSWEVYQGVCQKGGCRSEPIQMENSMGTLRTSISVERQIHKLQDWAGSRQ

Compound `COc1nnc2sc(C(=O)NC3CN(c4ncc(C(F)(F)F)cn4)C3)c(N)c2c1C` has an EC50 [1] greater than 30 µM, an EC50 [2] greater than 30 µM and an efflux ratio [3] of 1.6. For the same compound, the logD [4] was 3.73, the %max [5] was 93% and the EC50 [6] was greater than 30 µM. For the same compound, the EC50 [7] was greater than 30 µM, the clearance [8] was 7.7 mL/min/kg and the half-life [9] was 168 min. For the same compound, the bioavailability [10] was 57%, the Vd [11] was 0.74 L/kg and the minimal effective dose [12] was 0.56 mg/kg. The Activity [13] was greater than 50%, the Activity [14] was greater than 50% and the Activity [15] was greater than 50%. It also gave an Activity [16] greater than 50%, an Activity [17] greater than 50% and an Activity [18] greater than 50%. The Activity [19] was greater than 50%, the Activity [20] was greater than 50% and the Activity [21] was greater than 50%. It also gave an Activity [22] greater than 50%, an Activity [23] greater than 50% and an Activity [24] greater than 50%. For the same compound, the Activity [25] was greater than 50%, the Activity [26] was greater than 50% and the Activity [27] was greater than 50%. For the same compound, the Activity [28] was greater than 50%, the Activity [29] was greater than 50% and the Activity [30] was greater than 50%. For the same compound, the Activity [31] was greater than 50%.
